Assays:
[1] = target: T1, hVR1 (Homo sapiens, UniProt Q8NER1); experiment: Functional test on VR1, FLIPR Ca2+ influx in transfected CHO K1 cells, capsaicin; assay type: cell-based; conditions: capsaicin (Cap), read-out: Ki (human being) Cap column: inhibition (as a percentage)
T1 construct: expressed in transfected cells; host or cells: CHO K1 cells (ECACC), stably transfected

[2] = target: T1, hVR1; experiment: Functional test on human VR1, NADA (N-arachidonoyl dopamine) stimulus; assay type: cell-based, human being; conditions: includes values given in brackets after pAG, read-out: Ki (human being) [nM] NADA
Source text: II. Functional Tests Carried Out on the Vanilloid Receptor (VR1)
The agonistic or antagonistic effect of the substances to be tested on the vanilloid receptor 1 (VR1) can also be determined using the following assay. In this assay, the influx of Ca^2+ through the channel is quantified with the aid of a Ca^2+-sensitive dye (type Fluo-4, Molecular Probes Europe BV, Leiden, the Netherlands) in a fluorescent imaging plate reader (FLIPR, Molecular Devices, Sunnyvale, USA).
Chinese hamster ovary cells (CHO K1 cells, European Collection of Cell Cultures (ECACC) United Kingdom) are stably transfected with the VR1 gene. For functional testing, these cells are plated out on poly-D-lysine-coated black 96-well plates having a clear base (BD Biosciences, Heidelberg, Germany) at a density of 25,000 cells/well. The cells are incubated overnight at 37° C. and 5% CO2 in a culture medium (Ham's F12 nutrient mixture, 10% by volume of FCS (foetal calf serum), 18 μg/ml of L-proline). The next day the cells are incubated with Fluo-4 (Fluo-4 2 μM, 0.01% by volume of Pluronic F127, Molecular Probes in HBSS (Hank's buffered saline solution), Gibco Invitrogen GmbH, Karlsruhe, Germany) for 30 minutes at 37° C. Subsequently, the plates are washed three times with HBSS buffer and after further incubation for 15 minutes at RT used for Ca^2+ measurement in a FLIPR assay. The Ca^2+-dependent fluorescence is measured before and after the addition of the substances to be tested (λex wavelength=488 nm, λem=540 nm). Quantification is carried out by measuring the highest fluorescence intensity (FC, fluorescence counts) over time.
The FLIPR protocol consists of 2 substance additions. First the compounds to be tested (10 μM) are pipetted onto the cells and the Ca^2+ influx is compared with the control (capsaicin 10 μM) (% activation based on the Ca^2+ signal after the addition of 10 μM of capsaicin). […]
Desensitising agonists and antagonists led to suppression of the Ca^2+ influx. The % inhibition is calculated compared to the maximum achievable inhibition with 10 μM of capsaicin.
Starting from the percentage displacement caused by different concentrations of the compounds to be tested of general formula I, IC50 inhibitory concentrations which cause a 50-per cent displacement of capsaicin were calculated. Ki values for the test substances were obtained by conversion by means of the Cheng-Prusoff equation (Cheng, Prusoff; Biochem. Pharmacol. 22, 3099-3108, 1973).
NADA=N-arachidonoyl dopamine

[3] = target: T1, hVR1; experiment: Functional test on human VR1, 45° C. stimulus; assay type: cell-based, human being
[4] = target: T1, hVR1; experiment: Functional test on hVR1 after pH stimulus; assay type: cell-based, human being; conditions: @ 10 μM, read-out: IC50 (human being) hVR1, pH: inhibition (as a percentage)
[5] = target: T1, hVR1; experiment: Functional test on VR1, FLIPR Ca2+ influx in transfected CHO K1 cells, capsaicin; assay type: cell-based, human being; conditions: capsaicin (Cap); includes values given in brackets after pAG; read-out: Ki (human being) [nM] Cap
[6] = target: T2, rat-species vanilloid receptor 1 (VR1/TRPV1) (Rattus norvegicus, UniProt O35433); experiment: Functional testing on the vanilloid receptor 1, FLIPR Ca2+ influx in rat DRG cells, capsaicin; assay type: cell-based; parameters: key to Ki (rat) [nM] Cap: agonist / partial agonist / no effect: AG=agonist; pAG=partial agonist; NE=no effect; conditions: for Ki: capsaicin (Cap), includes values given in brackets after pAG
T2 construct: endogenous in cells; host or cells: primary cells dissociated from rat dorsal root ganglia (DRG), cultured 2-3 days with NGF
T2 sequence (O35433 whole entry): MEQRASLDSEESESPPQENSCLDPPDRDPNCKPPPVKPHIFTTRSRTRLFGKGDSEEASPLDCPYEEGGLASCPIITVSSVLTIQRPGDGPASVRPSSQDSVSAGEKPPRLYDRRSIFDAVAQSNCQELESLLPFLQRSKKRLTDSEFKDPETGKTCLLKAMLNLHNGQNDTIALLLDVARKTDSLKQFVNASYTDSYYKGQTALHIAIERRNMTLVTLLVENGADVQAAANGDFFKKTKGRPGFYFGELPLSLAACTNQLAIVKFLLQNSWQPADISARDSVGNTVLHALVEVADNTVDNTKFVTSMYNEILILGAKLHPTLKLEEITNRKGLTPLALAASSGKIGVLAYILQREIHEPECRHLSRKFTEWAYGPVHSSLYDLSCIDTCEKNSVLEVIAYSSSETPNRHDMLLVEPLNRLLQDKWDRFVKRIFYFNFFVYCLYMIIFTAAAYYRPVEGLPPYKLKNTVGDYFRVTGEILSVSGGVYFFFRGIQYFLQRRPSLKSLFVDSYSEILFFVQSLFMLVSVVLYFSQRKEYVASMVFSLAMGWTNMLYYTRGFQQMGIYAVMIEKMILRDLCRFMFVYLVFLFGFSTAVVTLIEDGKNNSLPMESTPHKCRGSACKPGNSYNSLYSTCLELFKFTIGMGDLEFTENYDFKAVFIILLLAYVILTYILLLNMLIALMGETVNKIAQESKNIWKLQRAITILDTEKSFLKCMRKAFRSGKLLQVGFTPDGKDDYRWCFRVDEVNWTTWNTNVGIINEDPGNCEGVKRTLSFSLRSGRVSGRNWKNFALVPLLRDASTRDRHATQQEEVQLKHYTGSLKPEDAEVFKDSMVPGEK
Source text: I. Functional Testing Carried Out on the Vanilloid Receptor 1 (VRI/TRPV1 Receptor)
The agonistic or antagonistic effect of the substances to be tested on the rat-species vanilloid receptor 1 (VR1/TRPV1) can be determined using the following assay. In this assay, the influx of Ca^2+ through the receptor channel is quantified with the aid of a Ca^2+-sensitive dye (type Fluo-4, Molecular Probes Europe BV, Leiden, the Netherlands) in a fluorescent imaging plate reader (FLIPR, Molecular Devices, Sunnyvale, USA).
Complete medium: 50 ml HAMS F12 nutrient mixture (Gibco Invitrogen GmbH, Karlsruhe, Germany) with
10% by volume of FCS (foetal calf serum, Gibco Invitrogen GmbH, Karlsruhe, Germany, heat-inactivated);
2 mM L-glutamine (Sigma, Munich, Germany);
1% by weight of AA solution (antibiotic/antimyotic solution, PAA, Pasching, Austria) and 25 ng/ml NGF medium (2.5 S, Gibco Invitrogen GmbH, Karlsruhe, Germany)
Cell culture plate: Poly-D-lysine-coated, black 96-well plates having a clear base (96-well black/clear plate, BD Biosciences, Heidelberg, Germany) are additionally coated with laminin (Gibco Invitrogen GmbH, Karlsruhe, Germany), the laminin being diluted with PBS (Ca—Mg-free PBS, Gibco Invitrogen GmbH, Karlsruhe, Germany) to a concentration of 100 μg/ml. Aliquots having a laminin concentration of 100 μg/ml are removed and stored at −20° C. The aliquots are diluted with PBS in a ratio of 1:10 to 10 μg/ml of laminin and respectively 50 μL of the solution are pipetted into a recess in the cell culture plate. The cell culture plates are incubated for at least two hours at 37° C., the excess solution is removed by suction and the recesses are each washed twice with PBS. The coated cell culture plates are stored with excess PBS which is not removed until just before the feeding of the cells.
Preparation of the Cells:
The vertebral column is removed from decapitated rats and placed immediately into cold HBSS buffer (Hank's buffered saline solution, Gibco Invitrogen GmbH, Karlsruhe, Germany), i.e. buffer located in an ice bath, mixed with 1% by volume (per cent by volume) of an AA solution (antibiotic/antimyotic solution, PAA, Pasching, Austria). The vertebral column is cut longitudinally and removed together with fasciae from the vertebral canal. Subsequently, the dorsal root ganglia (DRG) are removed and again stored in cold HBSS buffer mixed with 1% by volume of an AA solution. The DRG, from which all blood remnants and spinal nerves have been removed, are transferred in each case to 500 μL of cold type 2 collagenase (PAA, Pasching, Austria) and incubated for 35 minutes at 37° C. After the addition of 2.5% by volume of trypsin (PAA, Pasching, Austria), incubation is continued for 10 minutes at 37° C. After complete incubation, the enzyme solution is carefully pipetted off and 500 μL of complete medium are added to each of the remaining DRG. The DRG are respectively suspended several times, drawn through cannulae No. 1, No. 12 and No. 16 using a syringe and transferred to a 50 ml Falcon tube which is filled up to 15 ml with complete medium. The contents of each Falcon tube are respectively filtered through a 70 μm Falcon filter element and centrifuged for 10 minutes at 1,200 rpm and RT. The resulting pellet is respectively taken up in 250 μL of complete medium and the cell count is determined.
The number of cells in the suspension is set to 3×10^5 per ml and 150 μL of this suspension are in each case introduced into a recess in the cell culture plates coated as described hereinbefore. In the incubator the plates are left for two to three days at 37° C., 5% by volume of CO2 and 95% relative humidity. […]

T1 sequence (Q8NER1 whole entry): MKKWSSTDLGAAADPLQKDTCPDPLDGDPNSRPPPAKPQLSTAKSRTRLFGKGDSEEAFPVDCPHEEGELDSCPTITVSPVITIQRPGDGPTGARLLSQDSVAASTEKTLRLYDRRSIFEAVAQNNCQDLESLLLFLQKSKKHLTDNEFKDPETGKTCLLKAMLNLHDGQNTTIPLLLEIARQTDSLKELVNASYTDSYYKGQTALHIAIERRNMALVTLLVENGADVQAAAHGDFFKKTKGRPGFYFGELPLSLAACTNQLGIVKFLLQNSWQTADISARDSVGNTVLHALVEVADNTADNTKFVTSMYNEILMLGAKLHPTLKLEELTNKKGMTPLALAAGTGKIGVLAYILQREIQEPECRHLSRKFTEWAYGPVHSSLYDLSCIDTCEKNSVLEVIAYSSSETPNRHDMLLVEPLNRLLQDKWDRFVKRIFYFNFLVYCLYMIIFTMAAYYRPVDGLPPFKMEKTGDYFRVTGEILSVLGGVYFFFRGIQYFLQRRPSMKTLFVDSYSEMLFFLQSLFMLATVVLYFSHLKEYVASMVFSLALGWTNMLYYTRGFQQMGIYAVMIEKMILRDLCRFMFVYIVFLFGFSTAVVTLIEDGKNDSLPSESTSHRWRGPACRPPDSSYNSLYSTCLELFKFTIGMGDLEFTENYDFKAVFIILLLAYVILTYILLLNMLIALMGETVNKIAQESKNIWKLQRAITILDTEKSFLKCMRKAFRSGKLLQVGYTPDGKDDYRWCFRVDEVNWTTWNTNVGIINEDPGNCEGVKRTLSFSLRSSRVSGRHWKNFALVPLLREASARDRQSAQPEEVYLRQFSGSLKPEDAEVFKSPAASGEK

Row | inhibition at 5 µM [1] [%] | Ki [2] [nM] | inhibition at 10 µM ([3]; @ 10 μM, read-out: IC50 (human being), 45° C.: inhibition (as a percentage)) [%] | inhibition at 10 µM [4] [%] | Ki [5] [nM] | Ki (rat) [nM] Cap: agonist / partial agonist / no effect [6] | Ki [6] [nM] | IC50 ([3]; read-out: IC50 (human being) [nM], 45° C.) [nM] | SMILES
1 | 13 | – | – | – | – | – | – | – | COc1ccc(Cn2nc(C(F)(F)F)cc2CNC(=O)C(C)c2ccc3c(c2)OCCO3)cc1 (stereo not drawn) [Example 202, 2-(2,3-dihydrobenzo[b][1,4]dioxin-6-yl)-N-((1-(4-methoxybenzyl)-3-(trifluoromethyl)-1H-pyrazol-5-yl)methyl)propanamide]
2 | – | 0.004 | 26 | 13 | 0.2 | pAG | 0.9 | – | CC(C(=O)NCc1cc(C(C)(C)C)nn1-c1ccc(F)c(Cl)c1)c1cccc2cnccc12 (stereo not drawn) [Example 69, N-((3-tert-butyl-1-(3-chloro-4-fluorophenyl)-1H-pyrazol-5-yl)methyl)-2-(isoquinolin-5-yl)propanamide]
3 | – | 0.1 | – | 13 | 1.6 | – | 4.2 | 25.6 | CC(C(=O)NCc1cc(C(C)(C)C)nn1-c1cccc(Cl)c1)c1cccc2ccc(O)cc12 (stereo not drawn) [Example 57, N-((3-tert-butyl-1-(3-chlorophenyl)-1H-pyrazol-5-yl)methyl)-2-(7-hydroxynaphthalen-1-yl)propanamide]
